Measurements published in US6645977B1 (priority 1997, dated 2003).
Where “and” joins values, the source holds several entries; their conditions need not be identical. Equal values may be shown once. Where a name gives a salt, the structure may show the parent alone. Read-outs that look alike come from different tables or passages of the source.

What was measured:
[1] = relative to morphine; cited from earlier work
[2] = biological target: nAChRs comprised of α4 and β2 subunits (labelled by 3H-cytisine) (Rattus norvegicus, UniProt P09483+P12390); assay: In vitro inhibition of 3H-cytisine binding
Description: In vitro inhibition of ^3H-cytisine binding
The predominant subtype with high affinity for nicotine is comprised of α4 and β2 subunits. nAChRs of the latter type can selectively be labelled by the nicotine modulator ^3H-cytisine.
Tissue Preparation: Preparations are performed at 0-4° C. unless otherwise indicated. […] The homogenate is centrifuged at 27,000×g for 10 min. The supernatant is discarded and the pellet is resuspended in fresh buffer and centrifuged a second time. The final pellet is resuspended in fresh buffer (35 ml per g of original tissue) and used for binding assays.
Assay: Aliquots of 500 μl homogenate are added to 25 μl of test solution and 25 μl of ^3H-cytisine (1 nM, final concentration), mixed and incubated for 90 min at 2° C. Non-specific binding is determined using (−)-nicotine (100 μM, final concentration). After incubation the samples are added 5 ml of ice-cold buffer and poured directly onto Whatman GF/C glass fibre filters under suction and immediately washed with 2×5 ml ice-cold buffer. The amount of radioactivity on the filters is determined by conventional liquid scintillation counting. Specific binding is total binding minus non-specific binding.

[3] = biological target: nAChR labelled by 3H-α-bungarotoxin (α7 subunits) (Rattus norvegicus, UniProt Q05941); assay: biochemical; type: binding
[4] = 3H-cytisine IC50, rat cerebral cortex homogenate, 1 nM 3H-cytisine, 90 min at 2° C.
[5] = read-out: 3H-α-bungarotoxin IC50
[6] = rat cerebral cortex homogenate, 1 nM 3H-cytisine, 90 min at 2° C., read-out: 3H-cytisine IC50

nAChRs comprised of α4 and β2 subunits (labelled by 3H-cytisine), sequence (P09483 31-630): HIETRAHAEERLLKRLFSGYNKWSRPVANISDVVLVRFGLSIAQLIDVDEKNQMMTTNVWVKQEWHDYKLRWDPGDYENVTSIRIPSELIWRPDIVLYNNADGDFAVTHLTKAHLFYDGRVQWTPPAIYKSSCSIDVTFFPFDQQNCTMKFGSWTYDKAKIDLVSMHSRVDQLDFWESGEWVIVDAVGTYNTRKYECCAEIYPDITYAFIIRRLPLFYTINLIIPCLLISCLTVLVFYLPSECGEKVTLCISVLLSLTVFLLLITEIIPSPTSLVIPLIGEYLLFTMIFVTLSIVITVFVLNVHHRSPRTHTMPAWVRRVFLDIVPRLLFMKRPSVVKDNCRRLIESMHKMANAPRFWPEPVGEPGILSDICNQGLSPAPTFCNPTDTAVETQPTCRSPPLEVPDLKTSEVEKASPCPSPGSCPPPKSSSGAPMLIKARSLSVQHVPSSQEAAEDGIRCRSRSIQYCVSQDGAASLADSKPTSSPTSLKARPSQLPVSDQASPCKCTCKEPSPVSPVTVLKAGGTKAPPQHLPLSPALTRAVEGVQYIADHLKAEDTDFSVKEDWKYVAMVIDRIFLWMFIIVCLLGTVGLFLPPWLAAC
nAChRs comprised of α4 and β2 subunits (labelled by 3H-cytisine), sequence (P12390 25-500): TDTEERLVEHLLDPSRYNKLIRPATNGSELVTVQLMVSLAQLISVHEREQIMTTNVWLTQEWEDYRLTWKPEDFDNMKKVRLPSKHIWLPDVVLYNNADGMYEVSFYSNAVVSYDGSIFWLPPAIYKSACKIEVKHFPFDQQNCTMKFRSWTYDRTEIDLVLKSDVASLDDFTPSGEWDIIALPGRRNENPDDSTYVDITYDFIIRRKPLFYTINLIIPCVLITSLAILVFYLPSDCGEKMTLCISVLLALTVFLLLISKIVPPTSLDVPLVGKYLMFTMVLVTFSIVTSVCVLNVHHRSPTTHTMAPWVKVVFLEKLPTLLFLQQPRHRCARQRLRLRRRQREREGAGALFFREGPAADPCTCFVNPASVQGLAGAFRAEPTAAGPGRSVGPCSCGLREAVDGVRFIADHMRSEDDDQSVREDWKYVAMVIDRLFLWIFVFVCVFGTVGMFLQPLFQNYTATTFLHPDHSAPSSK
nAChR labelled by 3H-α-bungarotoxin (α7 subunits), sequence (Q05941 23-502): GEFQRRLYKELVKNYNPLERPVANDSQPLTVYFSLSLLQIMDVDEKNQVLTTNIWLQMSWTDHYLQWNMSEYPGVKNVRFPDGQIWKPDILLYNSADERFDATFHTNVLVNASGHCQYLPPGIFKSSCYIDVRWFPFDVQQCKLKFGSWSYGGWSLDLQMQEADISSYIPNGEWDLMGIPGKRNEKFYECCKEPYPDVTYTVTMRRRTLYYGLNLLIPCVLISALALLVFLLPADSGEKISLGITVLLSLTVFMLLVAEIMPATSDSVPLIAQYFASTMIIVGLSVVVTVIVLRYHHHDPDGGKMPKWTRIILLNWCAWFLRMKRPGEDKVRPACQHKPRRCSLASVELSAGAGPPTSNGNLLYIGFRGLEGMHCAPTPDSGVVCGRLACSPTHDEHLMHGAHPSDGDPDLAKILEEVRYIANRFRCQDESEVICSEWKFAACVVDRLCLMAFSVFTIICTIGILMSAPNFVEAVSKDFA

SMILES | melting point | IC50 [3, 5] | other results
Clc1ccc(C2CC3CCC2N3)cn1 (stereo not shown) [Epibatidine] |  |  | approximate analgesic potency [1]: ~500 times that of morphine
CC(=O)C1=CC2CCC(C1)N2C.O=C(O)/C=C/C(=O)O (racemic) | 148.5 to 150 °C |  | 
CN1C2C=C(c3nc4ccccc4s3)CC1CC2.O=C(O)/C=C/C(=O)O (racemic) | 195 to 196.8 °C |  | 
C1=C(c2cccnc2)CC2CCC1N2Cc1ccccc1.O=C(O)/C=C/C(=O)O (racemic) [Compound 1a, (±)-8-Benzyl-3-(3-pyridyl)-8-azabicyclo[3.2.1]oct-2-ene Fumaric Acid Salt] | 142 to 146 °C | 500 nM | IC50 [2, 4]: 23 nM
C1=C(c2cc3ccccc3o2)CC2CCC1N2 (racemic) [Compound 1e, (±)-3-(2-Benzofuryl)-8-H-8-azabicyclo[3.2.1]oct-2-ene Fumaric Acid Salt] |  |  | IC50 [2, 6]: > 10000 nM; IC50 [3]: 800 nM
CN1C2C=C(c3sccc3-c3ccoc3)CC1CC2.O=C(O)/C=C/C(=O)O (racemic) | 187 to 189 °C |  | 
CC(=O)Nc1cccc(C2=CC3CCC(C2)N3C)c1.O=C(O)/C=C/C(=O)O (racemic) [Compound 3c, (±)-3-(3-Acetamidophenyl)-8-methyl-8-azabicyclo[3.2.1]oct-2-ene Fumaric Acid Salt] | 195.3 to 196.9 °C |  | IC50 [2, 6]: 17000 nM; IC50 [3]: 640 nM
CCN1C2C=C(c3cc4ccccc4o3)CC1CC2.O=C(O)/C=C/C(=O)O (racemic) [Compound 3e, (±)-3-(2-Benzofuryl)-8ethyl-8-azabicyclo[3.2.1]oct-2-ene Fumaric Acid Salt] | 197 to 203 °C | 510 nM | IC50 [2, 4]: > 10000 nM
CN1C2C=C(c3cccs3)CC1CC2.O=C(O)/C=C/C(=O)O (racemic) | 141.5 to 143.5 °C |  | 
CN1C2C=C(c3oc4ccccc4c3Br)CC1CC2 (racemic) [Compound 2f, (±)-3-[2-(3-Bromobenzofuryl)]-8-methyl-8-azabicyclo[3.2.1]oct-2-ene Fumaric Acid Salt] |  | 1300 nM | IC50 [2, 6]: 30000 nM
C1=C(c2cc3ccccc3o2)CC2CCC1N2 (racemic) (as salt: fumaric acid salt) [Compound 1e, (±)-3-(2-Benzofuryl)-8-H-8-azabicyclo[3.2.1]oct-2-ene Fumaric Acid Salt] | 201 to 204 °C |  | 
CN1C2C=C(c3ccsc3)CC1CC2.Cl (racemic) | 117 to 118.5 °C |  | 
CN1C2C=C(c3ccc(Cl)nc3)CC1CC2 (racemic) [Compound 5b, (±)-8-Methyl-3-[3-(6-chloro)pyridyl]-8-azabicyclo[3.2.1]oct-2-ene Fumaric Acid Salt] |  |  | IC50 [2, 6]: 20 nM; IC50 [3]: 1900 nM
CN1C2C=C(c3coc4ccccc34)CC1CC2.O=C(O)/C=C/C(=O)O (racemic) [Compound 4a, (±)-3-(3-Benzofuryl)-8-methyl-8-azabicyclo[3.2.1]oct-2-ene Fumaric Acid Salt] | 140.9 to 142.8 °C | 3500 nM | IC50 [2, 4]: 2700 nM
CN1C2C=C(c3sccc3Br)CC1CC2 (racemic) [Compound 1f, (±)-3-[2-(3-bromothienyl)]-8-methyl-8-azabicyclo[3.2.1]oct-2-ene Fumaric Acid Salt] |  | 82 nM | IC50 [2, 6]: 2200 nM
CN1C2C=C(c3csc4ccccc34)CC1CC2.O=C(O)/C=C/C(=O)O (racemic) | 146.6 to 149.5 °C |  | 
CN1C2C=C(c3cnc4ccccc4c3)CC1CC2.O=C(O)/C=C/C(=O)O (racemic) [Compound 3a, (±)-8-Methyl-3-(3-quinolinyl)-8-azabicyclo[3.2.1]oct-2-ene Fumaric Acid Salt] | 140.8 to 143.8 °C | 1440 nM | IC50 [2, 4]: 1300 nM
CN1C2C=C(c3cccc(N)c3)CC1CC2.O=C(O)/C=C/C(=O)O (racemic) [Compound 4c, (±)-3-(3-Aminophenyl) 8-methyl-8-azabicyclo[3.2.1]oct-2-ene Fumaric Acid Salt] | 195.3 to 196.9 °C | 440 nM | IC50 [2]: 30 nM
CN1C2C=C(c3cc4ccccc4o3)CC1CC2.O=C(O)/C=C/C(=O)O (racemic) | 188.3 to 190.9 °C and 188.5 to 191.2 °C |  | 
CN1C2C=C(c3ccc[se]3)CC1CC2 (racemic) | 176.8 to 178.3 °C |  | 
CN1C2C=C(c3cccnc3)CC1CC2 (racemic) [Compound 2a, (±)-8-Methyl-3-(3-pyridyl)-8-azabicyclo[3.2.1]oct-2-ene Fumaric Acid Salt] |  |  | IC50 [2]: 22 nM; IC50 [3]: 550 nM
CN1C2C=C(c3cc4ccccc4s3)CC1CC2 (racemic) [Compound 2c, (±)-3-(2-Benzothienyl)-8-methyl-8-azabicyclo[3.2.1]oct-2ene] | 81 to 83.6 °C | 100 nM | IC50 [2, 4]: 63800 nM
CN1C2C=C(c3ccc(Cl)nc3)CC1CC2 (racemic) (as salt: fumaric acid salt) [Compound 5b, (±)-8-Methyl-3-[3-(6-chloro)pyridyl]-8-azabicyclo[3.2.1]oct-2-ene Fumaric Acid Salt] | 140 to 142 °C |  | 
CN1C2C=C(c3cc4ccccc4o3)CC1CC2 (racemic) [Compound 1d, (±)-3-(2-Benzofuryl)-8-methyl-8-azabicyclo[3.2.1]oct-2-ene Fumaric Acid Salt] |  | 170 nM | IC50 [2, 4]: 120000 nM
CN1C2C=C(c3nccs3)CC1CC2.O=C(O)/C=C/C(=O)O (racemic) | 196.3 to 198.5 °C |  | 
CN1C2C=C(c3cc4ccccc4s3)CC1CC2.Cl (racemic) [Compound 2d, (±)-3-(2-Benzothienyl)-8-methyl-8-azabicyclo[3.2.1]oct-2-ene Hydrochloride] | > 250 °C | 67 nM | IC50 [2, 4]: 110000 nM
CN1C2C=C(c3oc4ccccc4c3Br)CC1CC2 (racemic) (as salt: fumaric acid salt) [Compound 2f, (±)-3-[2-(3-Bromobenzofuryl)]-8-methyl-8-azabicyclo[3.2.1]oct-2-ene Fumaric Acid Salt] | 161.4 to 163.3 °C |  | 
